According to US20100138935A1, “Detection of cellular stress” (priority 2004, published 2010):
Read-outs that look alike come from different tables or passages of the source.

Legend:
HOZ mice [1] = test: Plasma ALT as a marker of hepatotoxicity in HOZ mice; assay type: in vivo, mouse; conditions: 13 mg/kg; for Plasma ALT: female
Experimental: (§1) Terminal blood samples were taken by cardiac puncture into lithium/heparin-coated tubes for preparation of plasma. Tissues, as defined in each protocol, were routinely dissected as follows:
(§2) Following removal into tubes suitable for plasma preparation, venous blood samples were mixed on a roller for 10 minutes then cooled on ice. Red blood cells were removed by centrifugation at 2,000 rpm for 10 minutes at 8-10° C. The supernatant (plasma) was transferred to a second tube and stored at −70° C. until required for analysis.
(§3) Plasma samples were analysed for appropriate analytes on a Roche autoanalyser (Cobas Integra 400) according to the manufacturer's instructions. The routine markers measured included: (for liver damage) plasma alanine aminotransferase (ALT), aspartate aminotransferase (AST) and alkaline phosphatase (ALP) and (for kidney damage) plasma creatinine and blood urea nitrogen (BUN).
Two plasma enzyme markers, ALT and AST, were used as markers of hepatotoxicity in HOZ mice treated with cadmium chloride or sodium arsenite. The results of this analysis for HOZ mice treated with 10 mg/kg cadmium chloride are shown in Table 1 and for HOZ mice treated with 2-8 mg/kg cadmium chloride or 13 mg/kg sodium arsenite in Tables 2 and 3.

HOZ mice [2] = test: BUN as a marker of nephrotoxicity in HOZ mice; assay type: in vivo, mouse; conditions: female, 13 mg/kg
Experimental: as §1, §2, §3
The increase in BUN was 6-fold at 8 hours and 44-fold after 24 hours.

[3] = system: HO-1-LacZ (HOZ) transgene; test: LacZ transgene expression in HO-1-LacZ (HOZ) reporter mice; assay type: in vivo, mouse; conditions: female HOZ mice, 13 mg/kg i.p. in isotonic saline, 8 hours or 24 hours
Experimental: (§4) Each test compound was dissolved in the appropriate vehicle solution and administered by intraperitoneal injection (i.p.) at a dose volume of 10 ml/kg. Wherever possible, both naive (untreated) and vehicle-treated controls were used. If a test item whose toxicity in the mouse is poorly characterised was to be used, a dose-ranging experiment was conducted prior to the main experiment. The test item was administered to a single mouse which was monitored for any adverse effects 6-8 hours and 24 hours later. If the single dose ranging mouse tolerated the treatment, the remaining mice were administered the test item according to the protocol.
(§5) Two slices of tissue (˜2 mm thickness) were removed for histochemical analysis of LacZ expression according to methods described below.
(§6) Tissues were washed with PBS and prefixed in 0.2% glutaraldehyde in PBS containing 0.1M MgCl2 and 5 mM EDTA, pH 7.3, for 4 hours at 4° C. on a shaker. After fixation, the tissues were transferred to 20% Sucrose solution and dehydrated overnight at 4° C. The next day they were embedded in cryo-M-bed medium on cork discs and lowered slowly into liquid nitrogen then transferred to −80° C. until sections were required.
(§7) Cryostat sample and chamber temperatures were set to −30° C. The sample to be sectioned was placed in the cryostat one hour prior to sectioning to allow equilibration at the appropriate temperature. Frozen sections (10 μm) were cut and placed on aminopropyltriethoxysilane (APES) coated slides.
(§8) Prior to staining, sections were incubated in 0.2% glutaraldehyde (as above) for 10 minutes at room temperature then washed twice (5 min each) in PBS containing 2 mM MgCl2, 0.01% sodium deoxycholate and 0.02% % Nonidet-P40. Sections were then […] the same wash solution containing 1 mg/ml X-gal, 5 mM potassium ferrocyanide and 5 mM potassium ferricyanide overnight at 37° C. then washed twice in PBS for 5 min, allowed to air dry and mounted in aqueous mounting medium (Hydromount). Slides were evaluated and photographed. • Frozen Method 2
Tissues were excised, immediately placed into chilled 4% paraformaldehyde containing 0.1% glutaraldehyde and 2 mM MgCl2 in PBS, and fixed in the above solution for 3 hours at 2-8° C. with gentle shaking. Fixed tissues were washed at 2-8° C. for 3×5 minutes with chilled PBS containing 2 mM MgCl2 and dehydrated overnight at 2-8° C. in PBS containing 2 mM MgCl2 and 30% (w/v) sucrose overnight The next day dehydrated tissues were embedded in OCT embedding medium using an isopentane/dry ice bath. Embedded tissues were stored at −70° C. until they could be cryosectioned.
Frozen sections were washed three times for 5 minutes in PBS containing 2 mM MgCl2 at 2-8° C. then 3×30 min in detergent wash (PBS containing 2 mM MgCl2 0.01% Nonidet P40 and 0.1% Sodium Deoxycholate) at 2-8° C. They were then stained overnight in PBS containing 2 mM MgCl2, 0.02% Nonidet P40, 0.1% Sodium Deoxycholate, 5 mM Potassium ferrocyanide, 5 mM Potassium ferricyanide, and 0.1% X-gal at 37° C. The next day, the slides were washed three times for 5 minutes in PBS containing 2 mM MgCl2 followed by three times for 5 minutes in PBS at room temperature. They were equilibrated with 100% ethanol (5 min) and counterstained with Eosin for 1 min at room temperature. Following dehydration and mounting they were evaluated and photographed. • Whole Mount Method
Tissue specimens that had been prefixed in fresh 4% paraformaldehyde were stained immediately using the procedure for “Whole Mount X-Gal Histochemistry of Transgenic Animal Tissues” (see http://www.rodentia.com/wmc/docs/lacZ bible.html), summarised below) was followed, and the post-fixed tissues were transferred to 70% (v/v) ethanol.
Following fixation for one hour in 4% paraformaldehyde, tissues were rinsed three times, for thirty minutes each, with rinse buffer (100 mM sodium phosphate (pH 7.3), 2 mM MgCl2, 0.01% sodium deoxycholate, 0.02% NP-40) at room temperature. […]

HOZ mice [4] = test: Plasma AST as a marker of hepatotoxicity in HOZ mice; assay type: in vivo, mouse; conditions: female, 13 mg/kg
Experimental: as §1, §2, §3
Two plasma enzyme markers, ALT and AST, were used as markers of hepatotoxicity in HOZ mice treated with cadmium chloride or sodium arsenite. […]

[5] = dissolved in DMSO, injected intra-peritoneally; cited from earlier work
p21-LacZ (WAZ) transgene = assay type: in vivo, mouse
Experimental: as §4, §5
Mouse brains were dissected so as to reveal the dentate gyrus as fully as possible. In the case of the kidneys, one kidney was cut in longitudinal section and the other in transverse section.
as §6, §7, §8
In experiments on WAZ44 mice, single doses of etoposide (of up to 40 mg/kg) were administered i.p. Animals were killed after 24 hours and tissues fixed and stained for LacZ expression.
Acrylamide, at a total dose of 150 mg/kg, induces neuropathy manifesting as partial paralysis approximately 7 days after the start of treatment. The dose may be administered as a single injection or divided; however, the effect depends upon the total dose, and since a single dose of 150 mg/kg is likely to be acutely toxic, a five-day coursed of injections of 30 mg/kg is preferred. Acrylamide intoxication is associated with both central and peripheral effects; the central effects include behavioural changes (increased milk-licking) which occur within two days of dosing, preceding peripheral changes such as reduced hind-limb grip and reduced locomotor activity by up to three weeks (Teal and Evans, 1982). In experiments on WAZ44 mice, five doses of acrylamide (30 mg/kg) were administered i.p.
A frozen section from the brain of an acrylamide-treated WAZ44 mouse was prepared and stained using Frozen Method 1. A dissecting microscope was used to view the slides and generate photomicrographs (a) transverse section of whole brain, original magnification ×10; (b) dentate gyrus and hippocampus, original magnification ×25 (c) cortex, original magnification ×63.
WAZ mice received single i.p. injections of etoposide (40 mg/kg); mercuric chloride (HgCl2, 8.5 mg/kg); lipopolysaccharide (LPS, 1.5 mg/kg) or paracetamol (300 mg/kg). WAZ mice received a single i.p. injection of each compound at a single dose level (see FIG. 5). Twenty-four hours later, the mice were killed and the brains sectioned and stained for LacZ expression.

[6] = system: HO-1-LacZ reporter transgene in HEK293 cells; test: Transient transfection of HO-1-LacZ reporter construct into HEK293 cells, induction with haemin; assay type: cell-based, mouse
Description: We have used RedET recombination cloning (Zhang et al., 2000) to produce a HO-1-LacZ reporter transgene. A LacZ-SV40polyA minigene was engineered to contain homologous regions to exons 1 and 2 of the HO-1 gene. This minigene cassette also contains a bacterial Amp gene, at the 3′-end, which was used as a selectable marker during cloning. The minigene was then introduced, by homologous recombination, into a BAC clone containing the mouse HO-1 locus (clone RPCI-23 290L07, HGMP Resource Centre) substituting for the endogenous HO-1 exon1 and intron1 sequences. Thus, the HO-1 promoter would express LacZ from the ATG start codon, in place of the HO-1 protein. The correct position of the LacZ-SV40polyA minigene was confirmed by sequencing both the 5′- and 3′-junction regions. The HO-1 reporter locus, containing most of the HO-1 gene together with 16.5 kb of upstream promoter and 8 kb of 3′ sequence, was then recombined out from the BAC clone into the pACYC low copy number plasmid backbone.

[7] = WAZ mice, single i.p. injection (etoposide 40 mg/kg; HgCl2 8.5 mg/kg; LPS 1.5 mg/kg; paracetamol 300 mg/kg), 24 hours

In the case of `O=[As]O` [Sodium Arsenite, sodium arsenite], the “hepatotoxic response (plasma ALT, AST)” value (HOZ mice [1]; HOZ mice) is reported as “did not exhibit a hepatotoxic response”, the “Plasma ALT” value (HOZ mice [1]; 8 hours) is reported as 43.0 u/L and the “Plasma ALT” value (HOZ mice [1]; 24 hours) is reported as 26.7 u/L. The BUN (HOZ mice [2]; 8 hours) was 5.62, the BUN (HOZ mice [2]; 24 hours) was 3.50 and the “HOZ transgene expression in liver” value [3] was “expression of the HOZ transgene at both time points”. The “Plasma AST” value (HOZ mice [4]; 8 hours) was 107.3 u/L and the “Plasma AST” value (HOZ mice [4]; 24 hours) was 67.8 u/L.

In the case of `COc1cc([C@@H]2c3cc4c(cc3[C@@H](O[C@@H]3O[C@@H]5CO[C@@H](C)O[C@H]5[C@H](O)[C@H]3O)[C@H]3COC(=O)[C@H]23)OCO4)cc(OC)c1O` [etoposide], the LD50 [5] is listed as 40 mg/kg, the “LacZ transgene expression in tissues” value (p21-LacZ (WAZ) transgene; WAZ44 mice, single doses of up to 40 mg/kg i.p., killed after 24 hours) is listed as “significant expression in the spleen, the thymus and in some regions of the brain” and the “expression of the WAZ transgene in the brain” value (“expression … in the brain” below) (p21-LacZ (WAZ) transgene; mouse, in vivo) is listed as “high levels of expression”. The “pattern of WAZ transgene induction in the brain” value (shortened to “pattern”) (p21-LacZ (WAZ) transgene; mouse, in vivo) was “induced expression in the same cells within the various regions in the brain”.

In the case of `C=CC1=C(C)c2cc3[n-]c(cc4nc(cc5[n-]c(cc1n2)c(C)c5C=C)C(C)=C4CCC(=O)O)c(CCC(=O)O)c3C.[Cl-].[Fe+3]` [haemin], the “increase in the LacZ labelling index over uninduced control cells” value [6] is reported as 11 fold.

In the case of `[Cl][Hg][Cl]` [mercuric chloride], the “expression … in the brain” value (p21-LacZ (WAZ) transgene; [7]) is reported as “high levels of expression” and the “pattern” value (p21-LacZ (WAZ) transgene; [7]) is reported as “induced expression in the same cells within the various regions in the brain”.

With `CC(=O)Nc1ccc(O)cc1` [paracetamol] the “expression … in the brain” value (p21-LacZ (WAZ) transgene; mouse, in vivo) was “high levels of expression” and the “pattern” value (p21-LacZ (WAZ) transgene; mouse, in vivo) was “distinct pattern of induction within the hippocampus, cerebellum and cortex”.

With lipopolysaccharide [LPS] the “expression … in the brain” value (p21-LacZ (WAZ) transgene; [7]) was “high levels of expression” and the “pattern” value (p21-LacZ (WAZ) transgene; [7]) was “induced expression in the same cells within the various regions in the brain”.
